According to patent publication US20220062240A1, “METHODS OF TREATING CANCER USING A CLK INHIBITOR” (BioSplice Therapeutics, Inc., priority 2018, published 2022):
Where two headings read alike, the source gives them in different places. Values belong to the molecule of their own block, whether it stands above or below them.

Experiments:
CLK2 = biological target: T1, CLK2 (Homo sapiens, UniProt P49760); experiment: CLK2 kinase activity assay (Z-lyte, Ser/Thr 6 peptide); assay type: biochemical; conditions: recombinant CLK2 kinase, ATP 60 μM; read-out: EC50
T1 construct: purchased Thermo Fisher (Life Technologies), Z'-LYTE Kinase Assay Kits
T1 sequence (P49760 whole entry): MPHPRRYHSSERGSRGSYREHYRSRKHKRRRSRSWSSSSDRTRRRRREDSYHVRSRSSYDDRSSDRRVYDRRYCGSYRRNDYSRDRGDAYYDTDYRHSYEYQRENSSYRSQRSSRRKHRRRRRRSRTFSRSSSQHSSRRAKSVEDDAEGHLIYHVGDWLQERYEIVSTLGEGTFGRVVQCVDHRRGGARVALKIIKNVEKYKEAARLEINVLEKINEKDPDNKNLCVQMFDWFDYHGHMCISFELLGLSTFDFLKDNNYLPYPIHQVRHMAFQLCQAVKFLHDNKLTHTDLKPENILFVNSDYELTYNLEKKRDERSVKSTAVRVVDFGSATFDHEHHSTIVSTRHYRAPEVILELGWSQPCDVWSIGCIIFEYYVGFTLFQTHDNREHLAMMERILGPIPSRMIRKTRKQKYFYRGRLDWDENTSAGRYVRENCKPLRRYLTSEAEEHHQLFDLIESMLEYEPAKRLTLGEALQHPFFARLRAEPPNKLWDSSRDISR
Method: All reactions were performed in duplicate.

BT-549 = experiment: CellTiter-Glo Viability Assay, breast cancer; assay type: cell-based; conditions: Homo sapiens, 96 h; BT-549, breast cancer, four days; read-out: EC50
CAMA1 = experiment: CellTiter-Glo Viability Assay, breast cancer; assay type: cell-based; conditions: Homo sapiens, CAMA-1, 96 h; CAMA1, breast cancer, four days; read-out: EC50
DU4475 = experiment: CellTiter-Glo Viability Assay, breast cancer; assay type: cell-based; conditions: Homo sapiens, DU-4475, 96 h; DU4475, breast cancer, four days; read-out: EC50
HCC1599 = experiment: CellTiter-Glo Viability Assay, breast cancer; assay type: cell-based; conditions: Homo sapiens, 96 h; HCC1599, breast cancer, four days; read-out: EC50
MCF7 = experiment: CellTiter-Glo Viability Assay, breast cancer; assay type: cell-based; conditions: Homo sapiens, 96 h; MCF7, breast cancer, four days; read-out: EC50
MDA-MB-231-Luc = experiment: CellTiter-Glo Viability Assay, breast cancer; assay type: cell-based; conditions: Homo sapiens, 96 h; MDA-MB-231-Luc, breast cancer, four days; read-out: EC50
T47D = experiment: CellTiter-Glo Viability Assay, breast cancer; assay type: cell-based; conditions: Homo sapiens, 96 h, breast cancer, four days, read-out: EC50
ZR-75-1 = experiment: CellTiter-Glo Viability Assay, breast cancer; assay type: cell-based; conditions: Homo sapiens, 96 h; ZR-75-1, breast cancer, four days; read-out: EC50
all 50 cell lines = experiment: CellTiter-Glo Viability Assay, average across all cell lines; assay type: cell-based; conditions: Homo sapiens; across all 50 cell lines; read-out: average EC50 for inhibition of cancer cell proliferation
In short: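 Cancer cell lines of several tumour types plated at 300-3,000 cells/well and exposed to compound in duplicate for four days at 37° C, 5% CO2, with DMSO-treated controls. Viability read by CellTiter-Glo luminescence (ATP content); EC50 derived from dose-response curves.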

[1] = test system: colorectal cancer (6 cell lines); experiment: CellTiter-Glo Viability Assay, colorectal cancer; assay type: cell-based; conditions: Homo sapiens, inhibition of cancer cell proliferation
[2] = test system: haematopoietic & lymphoid tumors (13 cell lines); experiment: CellTiter-Glo Viability Assay, haematopoietic & lymphoid tumors; assay type: cell-based; conditions: Homo sapiens, inhibition of cancer cell proliferation
[3] = test system: liver cancer (3 cell lines); experiment: CellTiter-Glo Viability Assay, liver cancer; assay type: cell-based; conditions: Homo sapiens, inhibition of cancer cell proliferation
[4] = test system: lung cancer (4 cell lines); experiment: CellTiter-Glo Viability Assay, lung cancer; assay type: cell-based; conditions: Homo sapiens, inhibition of cancer cell proliferation
[5] = test system: ovarian cancer (4 cell lines); experiment: CellTiter-Glo Viability Assay, ovarian cancer; assay type: cell-based; conditions: Homo sapiens, inhibition of cancer cell proliferation
[6] = test system: pancreatic cancer (8 cell lines); experiment: CellTiter-Glo Viability Assay, pancreatic cancer; assay type: cell-based; conditions: Homo sapiens, inhibition of cancer cell proliferation
[7] = test system: prostate cancer (5 cell lines); experiment: CellTiter-Glo Viability Assay, prostate cancer; assay type: cell-based; conditions: Homo sapiens
CLK3 = CLK3 (Homo sapiens, UniProt P49761); experiment: CLK3 kinase activity assay (Z-lyte, Ser/Thr 18 peptide)
Sequence of CLK3 (P49761 whole entry): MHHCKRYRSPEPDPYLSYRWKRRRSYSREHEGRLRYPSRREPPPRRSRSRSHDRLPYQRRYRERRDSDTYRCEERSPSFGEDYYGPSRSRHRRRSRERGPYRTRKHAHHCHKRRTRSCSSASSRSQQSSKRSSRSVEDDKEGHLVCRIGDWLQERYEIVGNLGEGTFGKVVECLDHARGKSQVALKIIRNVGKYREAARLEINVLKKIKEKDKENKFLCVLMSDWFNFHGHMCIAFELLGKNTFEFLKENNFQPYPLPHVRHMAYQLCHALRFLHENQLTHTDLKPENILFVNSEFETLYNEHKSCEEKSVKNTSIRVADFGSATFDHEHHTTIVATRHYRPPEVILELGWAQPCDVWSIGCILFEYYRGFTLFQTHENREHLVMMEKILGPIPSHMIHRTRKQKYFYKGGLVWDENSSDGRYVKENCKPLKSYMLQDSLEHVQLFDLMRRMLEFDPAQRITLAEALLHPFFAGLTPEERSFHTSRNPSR

[8] = HCT-116, HCT116 cell line, read-out: Colorectal cancer, EC50 (μM) HCT116
[9] = HT-29, HT29 cell line, read-out: Colorectal cancer, EC50 (μM) HT29
[10] = SW-620, SW620 cell line, read-out: Colorectal cancer, EC50 (μM) SW620
[11] = DLD-1 cell line, read-out: Colorectal cancer, EC50 (μM) DLD-1
[12] = SW48 cell line, read-out: Colorectal cancer, EC50 (μM) SW48
[13] = SW480 cell line, read-out: Colorectal cancer, EC50 (μM) SW480
[14] = DND41, DND-41 cell line, read-out: Haematopoietic & Lymphoid tumors, EC50 (μM) DND-41
[15] = MV4-11, MV-4-11 cell line, read-out: Haematopoietic & Lymphoid tumors, EC50 (μM) MV-4-11
[16] = Rec1, REC-1 cell line, read-out: Haematopoietic & Lymphoid tumors, EC50 (μM) REC-1
[17] = SU-DHL-4, SUDHL4 cell line, read-out: Haematopoietic & Lymphoid tumors, EC50 (μM) SUDHL4
[18] = HL-60 cell line, read-out: Haematopoietic & Lymphoid tumors, EC50 (μM) HL-60
[19] = JM1 cell line, read-out: Haematopoietic & Lymphoid tumors, EC50 (μM) JM1
[20] = JURKAT, Clone E6-1 cell line, read-out: Haematopoietic & Lymphoid tumors, EC50 (μM) JURKAT, Clone E6-1
[21] = JeKo-1 cell line, read-out: Haematopoietic & Lymphoid tumors, EC50 (μM) JeKo-1
[22] = KASUMI-1 cell line, read-out: Haematopoietic & Lymphoid tumors, EC50 (μM) KASUMI-1
[23] = Loucy cell line, read-out: Haematopoietic & Lymphoid tumors, EC50 (μM) Loucy
[24] = MOLT-4 cell line, read-out: Haematopoietic & Lymphoid tumors, EC50 (μM) MOLT-4
[25] = TF-1 cell line, read-out: Haematopoietic & Lymphoid tumors, EC50 (μM) TF-1
[26] = TOLEDO cell line, read-out: Haematopoietic & Lymphoid tumors, EC50 (μM) TOLEDO
[27] = SNU-398, SNU398 cell line, read-out: Liver cancer, EC50 SNU398
[28] = HEPG2 cell line, read-out: Liver cancer, EC50 HEPG2
[29] = PLC/PRF/5 cell line, read-out: Liver cancer, EC50 PLC/PRF/5
[30] = A-427, A427 cell line, read-out: Lung cancer, EC50 (μM) A427
[31] = HCC78, HCC-78 cell line, read-out: Lung cancer, EC50 (μM) HCC-78
[32] = NCI-H460 cell line, read-out: Lung cancer, EC50 (μM) NCI-H460
[33] = NCI-H522 cell line, read-out: Lung cancer, EC50 (μM) NCI-H522
[34] = PA-1, PA1 cell line, read-out: Ovarian cancer, EC50 (μM) PA1
[35] = TOV112D, TOV-112D cell line, read-out: Ovarian cancer, EC50 (μM) TOV-112D
[36] = OV-90 cell line, read-out: Ovarian cancer, EC50 (μM) OV-90
[37] = OVCAR-3 cell line, read-out: Ovarian cancer, EC50 (μM) OVCAR-3
[38] = BXPC-3, BxPC3 cell line, read-out: Pancreatic cancer, EC50 BxPC3
[39] = CAPAN-1, Capan1 cell line, read-out: Pancreatic cancer, EC50 Capan1
[40] = Capan-2, Capan2 cell line, read-out: Pancreatic cancer, EC50 Capan2
[41] = MIA PaCa-2 cell line, read-out: Pancreatic cancer, EC50 MIA PaCa-2
[42] = PANC 05.04 cell line, read-out: Pancreatic cancer, EC50 PANC 05.04
[43] = PANC-1 cell line, read-out: Pancreatic cancer, EC50 PANC-1
[44] = UPAFII cell line, read-out: Pancreatic cancer, EC50 UPAFII
[45] = DU-145, read-out: Prostate cancer EC50 Du-145
[46] = PC-3, PC3 cell line, inhibition of cancer cell proliferation, read-out: Prostate cancer EC50 PC3
[47] = 22Rv1 cell line, inhibition of cancer cell proliferation, read-out: Prostate cancer EC50 22Rv1
[48] = LNCap clone FGC cell line, inhibition of cancer cell proliferation, read-out: Prostate cancer EC50 LNCap clone FGC
[49] = VCaP (Sigma) cell line, inhibition of cancer cell proliferation, read-out: Prostate cancer EC50 VCaP (Sigma)

EC50 (CLK2): 2.4 nM
EC50 (BT-549): 731 nM
EC50 (CAMA1): 1340 nM
EC50 (DU4475): 247 nM
EC50 (HCC1599): 38 nM
EC50 (MCF7): 3700 nM
EC50 (MDA-MB-231-Luc): 2700 nM
EC50 (T47D): 4960 nM
EC50 (ZR-75-1): 2920 nM
EC50 [1, 8]: 0.318 µM
EC50 [1, 9]: 1.2 µM
EC50 [1, 10]: 0.156 µM
EC50 [1, 11]: 0.264 µM
EC50 [1, 12]: 0.147 µM
EC50 [1, 13]: 0.644 µM
EC50 [2, 14]: 0.221 µM
EC50 [2, 15]: 0.032 µM
EC50 [2, 16]: 0.149 µM
EC50 [2, 17]: 0.241 µM
EC50 [2, 18]: 1.54 µM
EC50 [2, 19]: 0.062 µM
EC50 [2, 20]: 0.298 µM
EC50 [2, 21]: 0.139 µM
EC50 [2, 22]: 0.11 µM
EC50 [2, 23]: 0.28 µM
EC50 [2, 24]: 0.381 µM
EC50 [2, 25]: 0.789 µM
EC50 [2, 26]: 0.108 µM
EC50 [3, 27]: 71 nM
EC50 [3, 28]: 3290 nM
EC50 [3, 29]: 3350 nM
EC50 [4, 30]: 0.502 µM
EC50 [4, 31]: 1.44 µM
EC50 [4, 32]: 0.919 µM
EC50 [4, 33]: 0.097 µM
EC50 [5, 34]: 0.768 µM
EC50 [5, 35]: 0.421 µM
EC50 [5, 36]: 2.86 µM
EC50 [5, 37]: 0.291 µM
EC50 [6, 38]: 660 nM
EC50 [6, 39]: 583 nM
EC50 [6, 40]: 1120 nM
EC50 [6, 41]: 267 nM
EC50 [6, 42]: 3470 nM
EC50 [6, 43]: 1900 nM
EC50 [6, 44]: 511 nM
EC50 [7, 45]: 654 nM
EC50 [7, 46]: 860 nM
EC50 [7, 47]: 348 nM
EC50 [7, 48]: 4690 nM
EC50 [7, 49]: 756 nM
EC50 (CLK3): 10.3 nM
Compound: CN1CCN(c2cc(Nc3ncc4c(-c5ccc6ncccc6c5)c[nH]c4n3)ccn2)CC1 [Compound 67]
EC50 (all 50 cell lines): 1070 nM

EC50 (CLK2): 0.6 nM
EC50 (BT-549): 421 nM
EC50 (CAMA1): 901 nM
EC50 (DU4475): 487 nM
EC50 (HCC1599): 224 nM
EC50 (MCF7): 1820 nM
EC50 (MDA-MB-231-Luc): 1110 nM
EC50 (T47D): 1180 nM
EC50 (ZR-75-1): 1370 nM
EC50 [1, 8]: 0.389 µM
EC50 [1, 9]: 0.774 µM
EC50 [1, 10]: 0.206 µM
EC50 [1, 11]: 0.35 µM
EC50 [1, 12]: 0.19 µM
EC50 [1, 13]: 0.546 µM
EC50 [2, 14]: 0.571 µM
EC50 [2, 15]: 0.07 µM
EC50 [2, 16]: 0.162 µM
EC50 [2, 17]: 0.523 µM
EC50 [2, 18]: 0.958 µM
EC50 [2, 19]: 0.165 µM
EC50 [2, 20]: 0.561 µM
EC50 [2, 21]: 0.176 µM
EC50 [2, 22]: 0.257 µM
EC50 [2, 23]: 0.317 µM
EC50 [2, 24]: 0.546 µM
EC50 [2, 25]: 0.649 µM
EC50 [2, 26]: 0.183 µM
EC50 [3, 27]: 134 nM
EC50 [3, 28]: 597 nM
EC50 [3, 29]: 1270 nM
EC50 [4, 30]: 0.506 µM
EC50 [4, 31]: 1.14 µM
EC50 [4, 32]: 0.709 µM
EC50 [4, 33]: 0.277 µM
EC50 [5, 34]: 0.537 µM
EC50 [5, 35]: 0.327 µM
EC50 [5, 36]: 1.48 µM
EC50 [5, 37]: 0.232 µM
EC50 [6, 38]: 443 nM
EC50 [6, 39]: 811 nM
EC50 [6, 40]: 1650 nM
EC50 [6, 41]: 279 nM
EC50 [6, 42]: 1040 nM
EC50 [6, 43]: 903 nM
EC50 [6, 44]: 435 nM
EC50 [7, 45]: 652 nM
EC50 [7, 46]: 602 nM
EC50 [7, 47]: 449 nM
EC50 [7, 48]: 651 nM
EC50 [7, 49]: 1380 nM
EC50 (CLK3): 13.6 nM
Compound: CN1CCC(Oc2ccc(C(=O)Nc3cc4cc(-c5cnn(C)c5)ccc4cn3)cc2)CC1 [Compound 68]
EC50 (all 50 cell lines): 632 nM
